Measured values as given in patent US11274079B2 (DALIAN INSTITUTE OF CHEMICAL PHYSICS, CHINESE ACADEMY OF …, priority 2018, dated 2022).

Columns and labels:
M1 receptor = biological target: T1, M1 receptor (Homo sapiens, UniProt P11229); assay: DMR assay, antagonism of acetylcholine in CHO-K1 cells stably transfecting the M1 receptor; format: cell-based; settings: for IC50: DMR, acetylcholine 1 μM, 1 h pretreatment, time point 5 min; for antagonistic activity against the M1 receptor, in words: structure-activity comparison with parent compound
T1 construct: expressed in transfected cells; host or cells: CHO-K1
T1 sequence (P11229 1-460): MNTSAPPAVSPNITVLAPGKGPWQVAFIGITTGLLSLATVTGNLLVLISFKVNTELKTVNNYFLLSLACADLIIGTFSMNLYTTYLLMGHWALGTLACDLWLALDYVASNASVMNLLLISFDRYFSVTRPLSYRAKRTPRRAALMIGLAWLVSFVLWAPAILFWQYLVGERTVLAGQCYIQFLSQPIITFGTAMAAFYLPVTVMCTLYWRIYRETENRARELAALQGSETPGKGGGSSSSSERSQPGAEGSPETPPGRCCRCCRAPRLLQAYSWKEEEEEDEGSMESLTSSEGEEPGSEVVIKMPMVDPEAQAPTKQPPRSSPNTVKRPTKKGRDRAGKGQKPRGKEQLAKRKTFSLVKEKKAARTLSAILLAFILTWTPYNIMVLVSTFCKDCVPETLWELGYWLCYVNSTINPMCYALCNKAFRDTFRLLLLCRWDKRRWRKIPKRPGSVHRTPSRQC
Protocol: (§1) The present invention relates to the antagonistic activity of the compound against the muscarinic receptor, which is primarily assessed by a cell-level dynamic mass redistribution (DMR) assay method. All tests are carried out on Epic platform, wherein the target model of the muscarinic receptor M1 is the CHO-K1 ceil model stably transfecting the M1 receptor, the target model of M3 is the HT-29 cell model endogenously highly expressing the M3 receptor, and the selected probe molecule is acetylcholine. Tire probe molecule acetylcholine is dissolved in water, while all other compounds are dissolved in DMSO.
(§2) The inoculated cell plate is placed in a cell incubator for culture for 12 h until the cell growth and fusion degree reaches about 95%, and the activity assay is carried out. The culture medium is sucked from the cultured ceils, the buffer salt specified by the test is added with a volume of 30 μL per orifice and is stabilized for 1 h. After the baseline is stable, a 2-min baseline is established, and different concentrations of compounds to be tested are added to test the cultured cells for 1 h. After the cells are pretreated with the compounds to be tested for 1 h, the 2-min baseline is re-established, and acetylcholine having a concentration of 1 μM is added to test the cultured cells for 1 h.

M3 receptor = biological target: T2, M3 receptor (Homo sapiens, UniProt P20309); assay: DMR assay, antagonism of acetylcholine in HT-29 cells endogenously expressing the M3 receptor; format: cell-based; settings: for IC50: DMR, acetylcholine 16 μM, 1 h pretreatment, time point 30 min; for antagonistic activity against the M3 receptor, in words: structure-activity comparison with parent compound
T2 construct: HT-29 cell model endogenously highly expressing the M3 receptor; endogenous in cells; host or cells: HT-29
Protocol: as §1
as §2, with “20” for “12”, “cells,” for “ceils,”, “h.” for “h. After the cells are pretreated with the compounds to be tested for 1 h, the 2-min baseline is re-established, and acetylcholine having a concentration of 1 μM is added to test the cultured cells for 1 h.”

T2 sequence (P20309 whole entry): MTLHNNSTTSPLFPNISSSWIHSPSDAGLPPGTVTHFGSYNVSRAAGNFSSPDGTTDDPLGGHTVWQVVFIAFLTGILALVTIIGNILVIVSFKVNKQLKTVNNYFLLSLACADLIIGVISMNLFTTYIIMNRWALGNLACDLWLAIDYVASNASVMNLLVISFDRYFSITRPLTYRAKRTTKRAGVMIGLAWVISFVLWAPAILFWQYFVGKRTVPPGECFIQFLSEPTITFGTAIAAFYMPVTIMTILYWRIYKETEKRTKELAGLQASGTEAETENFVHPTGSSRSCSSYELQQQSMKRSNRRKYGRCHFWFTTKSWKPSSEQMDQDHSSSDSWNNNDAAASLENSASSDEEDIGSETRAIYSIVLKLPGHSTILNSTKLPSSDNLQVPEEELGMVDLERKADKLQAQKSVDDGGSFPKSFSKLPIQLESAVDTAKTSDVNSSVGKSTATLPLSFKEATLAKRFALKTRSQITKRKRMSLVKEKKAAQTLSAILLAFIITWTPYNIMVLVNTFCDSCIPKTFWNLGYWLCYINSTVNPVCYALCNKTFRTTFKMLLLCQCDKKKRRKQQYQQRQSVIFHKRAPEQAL

Compound	IC50 (M1 receptor; CHO-K1-M1 cells) [nM]	IC50 (M3 receptor; HT-29 cells) [nM]	also measured
COc1ccc(O)c(C(CC2CCCC[N+]2(C)C)c2ccccc2)c1 (stereo not drawn) [I-9, 2-[2-(2-hydroxy-5-methoxyphenyl)-phenethyl]-N,N-dimethylpiperidine Bromide]	100 ± 10.2	160 ± 20.3	–
C[N+]1(C)CCCCC1CC(c1ccccc1)c1cc(F)ccc1O (single isomer, unassigned) [I-10b, 2-[2-(2-hydroxy-5-fluorophenyl)-phenylethyl]-N,N-dimethylpiperidine bromide]	23.2 ± 12.1	12.1 ± 5.3	–
CN1CCCCC1CC(c1ccccc1)c1cc(O)ccc1O (stereo not drawn) [II-11, 2-[2-(2,5-dihydroxy-phenyl)-phenethyl]-N-methylpiperidine]	190 ± 35.8	370 ± 159	–
C[N+]1(C)CCCCC1CC(c1ccccc1)c1ccc(F)cc1O (stereo not drawn) [I-8, 2-[2-(2-hydroxy-4-fluorophenyl)-phenethyl]-N,N-dimethylpiperidine bromide]	113 ± 41.2	97.2 ± 21.1	–
Cc1ccc(O)c(C(CC2CCCC[N+]2(C)CCCOc2ccccc2)c2ccccc2)c1.[Br-] (racemic) [I-4a-PrOPh, 2-[2-(2-hydroxy-5-methyl-phenyl)-phenethyl]-N-methyl, N-phenoxypropyl Piperidine Bromide]	295 ± 136	279 ± 128	antagonistic activity against the M3 receptor, in words (M3 receptor): a significant decrease in activity
CCCc1ccc(O)c(C(CC2CCCCN2C)c2ccccc2)c1 (stereo not drawn) [II-6]	73.2 ± 12.5	110 ± 13.9	–
Cc1ccc(O)c(C(CC2CCCC[N+]2(C)C)c2ccccc2)c1 (stereo not drawn) [I-4b-1-Br, 2-[2-(2-hydroxy-5-methyl-phenyl)-phenethyl]-N,N-dimethylpiperidine Bromide]	47.5 ± 13.5	27.1 ± 5.3	–
C[N+]1(C)CCCCC1CC(c1ccccc1)c1cc(F)ccc1O (single isomer, unassigned) [I-10a, 2-[2-(2-hydroxy-5-fluorophenyl)-phenylethyl]-N,N-dimethylpiperidine bromide]	13.2 ± 1.2	–	–
Cc1ccc(OC(=O)c2ccccc2)c(C(CC2CCCCN2C)c2ccccc2)c1 (stereo not drawn) [II-25, 2-[2-(2-benzoate Group-5-methyl-phenyl)-phenethyl]-N-methylpiperidine]	1600 ± 200	2970 ± 700	antagonistic activity against the M1 receptor, in words (M1 receptor): the activity is greatly decreased; antagonistic activity against the M3 receptor, in words (M3 receptor): the activity is greatly decreased
CN1CCCCC1CC(c1ccccc1)c1ccccc1O (stereo not drawn) [II-2a, 2-[2-(2-hydroxy-phenyl)phenethyl]-N-methylpiperidine]	–	–	DMR response signal of the compound itself (M3 receptor; HT-29 cells, FIG. 2): almost zero
Cc1ccc(O)c(C(CC2CCCN2C)c2ccccc2)c1 (stereo not drawn) [II-19]	74.5 ± 6	137 ± 22.9	–
CN1CCCCC1CC(c1ccccc1O)c1ccccc1O (single isomer, unassigned) [II-3-1, 2-[2,2-bis(2-hydroxy-phenyl)-ethyl]-N-methylpiperidine]	30.4 ± 12.6	15.4 ± 2.9	–
CN1CCCCC1CC(c1ccccc1O)c1ccccc1O (single isomer, unassigned) [II-3-2, 2-[2,2-bis(2-hydroxy-phenyl)-ethyl]-N-methylpiperidine]	53.4 ± 16.2	67.3 ± 6.6	–
CCN1CCCCC1CC(c1ccccc1)c1cc(C)ccc1O (stereo not drawn) [II-18, 2-[2-(2-hydroxy-5-methyl-phenyl)-phenethyl]-N-ethylpiperidine]	296 ± 62.9	239 ± 33.2	–
C[N+]1(C)CCCCC1CC(c1ccccc1O)c1ccccc1O (stereo not drawn) [I-3-I, 2-[2,2-bis(2-hydroxyphenyl)ethyl]-N,N-dimethylpiperidine Iodide]	63.5 ± 15.1	6.9 ± 1.3	–
CN1CCCCC1CC(c1ccccc1)c1cc(F)ccc1O (single isomer, unassigned) [II-10a, 2-[2-(2-hydroxy-5-fluorophenyl)-phenethyl]-N-methylpiperidine]	53.2 ± 12.5	49.3	–
Cc1ccc(O)c(C(CC2CCCC[N+]2(C)C)c2ccccc2)c1 (stereo not drawn) [I-4a-I, 2-[2-(2-hydroxy-5-methyl-phenyl)-phenethyl]-N,N-dimethylpiperidine Iodide]	13.8 ± 1.5	9.3 ± 1	–
Cc1ccc(O)c(C(CC2CCCC[N+]2(C)C)c2ccccc2)c1 (stereo not drawn) [I-4a-2-Br, 2-[2-(2-hydroxy-5-methyl-phenyl)-phenethyl]-N,N-dimethylpiperidine Bromide]	832 ± 132	1210 ± 120	–

Compound	IC50 (M1 receptor; CHO-K1-M1 cells) [nM]	IC50 (M3 receptor; HT-29 cells) [nM]	also measured
CCc1ccc(O)c(C(CC2CCCC[N+]2(C)C)c2ccccc2)c1 (stereo not drawn) [I-5-Br, 2-[2-(2-hydroxy-5-ethyl-phenyl)-phenethyl]-N,N-dimethylpiperidine Bromide]	45.6 ± 7.8	10.5 ± 1.1	–
Cc1ccc(S(=O)(=O)Oc2ccc(C)cc2C(CC2CCCCN2C)c2ccccc2)cc1 (stereo not drawn) [II-26, 2-[2-(2-methylp-toluenesulfonategroup-5-methyl-phenyl)-phenethyl]-N-methylpiperidine]	–	2620 ± 425	antagonistic activity against the M1 receptor, in words (M1 receptor): the activity is greatly decreased; antagonistic activity against the M3 receptor, in words (M3 receptor): the activity is greatly decreased
Cc1ccc(O)c(C(CC2CCCCN2C)c2ccc(Cl)cc2)c1 (stereo not drawn) [II-14, 2-[2-(4-chlorophenyl)-2-(2-hydroxy-5-methylphenyl)ethyl]-N-methylpiperidine]	129 ± 29.8	149 ± 39.5	–
Cc1ccc(O)c(C(CC2CCCC[N+]2(C)C)c2ccsc2)c1 (stereo not drawn) [I-22, 2-[2-(3-thienyl)-2-(2-hydroxy-5-methyl-phenyl)-ethyl]-N,N-dimethylpiperidine Bromide]	25.7 ± 0.8	10.7 ± 1.6	–
Cc1ccc(O)c(C(CC2CCCCN2C)c2ccccc2F)c1 (stereo not drawn) [II-7, 2-[2-(2-fluorophenyl)-2-(2-hydroxy-5-methyl-phenyl)ethyl]-N-methylpiperidine]	230 ± 10	210 ± 30	–
CN1CCCCC1CC(c1ccccc1)c1cc(F)ccc1O (single isomer, unassigned) [II-10b, 2-[2-(2-hydroxy-5-fluorophenyl)-phenethyl]-N-methylpiperidine]	83.2 ± 22.8	109 ± 39.4	–
CCc1cccc(C(CC2CCCCN2C)c2cc(C(C)C)cc(C)c2O)c1 (stereo not drawn) [II-16, 2-[2-(2-hydroxy-3-methyl-5-isopropylphenyl)-2-(3-ethylphenyl)-ethyl]-N-methylpiperidine]	–	371 ± 67.8	–
CCc1ccc(O)c(C(CC2CCCCN2C)c2ccccc2)c1 (stereo not drawn)	–	–	DMR response signal of the compound itself (M1 receptor; CHO-K1-M1 cells, FIG. 1): almost zero; antagonistic activity against the M1 receptor, in words (M1 receptor): the highest
C[N+]1(C)CCCCC1CC(c1ccccc1)c1cc(F)ccc1O (single isomer, unassigned) [I-10a-2, 2-[2-(2-hydroxy-5-fluorophenyl)-phenylethyl]-N,N-dimethylpiperidine bromide]	–	82.9 ± 11.7	–
CCc1ccc(O)c(C(CC2CCC[N+]2(C)C)c2ccccc2)c1 (stereo not drawn) [I-20, 2-[2-(2-hydroxy-5-ethyl-phenyl)-phenethyl]-N,N-dimethylpyrrolidine Bromide]	89 ± 7.3	53.2 ± 9.3	–
Cc1ccc(O)c(C(CC2CCCCN2C)c2ccsc2)c1 (stereo not drawn) [II-22, 2-[2-(3-thienyl)-2-(2-hydroxy-5-methyl-phenyl)-ethyl]-N-methylpiperidine]	–	20.7 ± 3.6	–
C[N+]1(C)CCCCC1CC(c1ccccc1)c1cc(F)ccc1O (stereo not drawn) [I-10b-1, 2-[2-(2-hydroxy-5-fluorophenyl)-phenylethyl]-N,N-dimethylpiperidine bromide]	–	35.2 ± 6.3	–
2-[2-(2-hydroxy-5-fluorophenyl)-phenylethyl]-N,N-dimethylpiperidine bromide [I-10b]	–	109 ± 39.4	–
CCCCCOc1ccc(O)c(C(CC2CCCCN2C)c2ccccc2)c1 (stereo not drawn) [II-12, 2-[2-(2-hydroxy-5-pentyloxy-phenyl)-phenethyl]-N-methylpiperidine]	–	620 ± 49.4	–
CN1CCCCC1CC(c1ccccc1)c1cc(C(F)(F)F)ccc1O (stereo not drawn) [II-13, 2-[2-(2-hydroxy-5-trifluoromethyl-phenyl)-phenethyl]-N-methylpiperidine]	–	249 ± 9.8	–
C[N+]1(C)CCCCC1CC(c1ccccc1)c1cc(F)ccc1O (single isomer, unassigned) [I-10b-2, 2-[2-(2-hydroxy-5-fluorophenyl)-phenylethyl]-N,N-dimethylpiperidine bromide]	–	164 ± 12.6	–
2-[2-(2-methyl p-toluenesulfonate group-5-methyl-phenyl)-phenethyl]-N,N-dimethylpiperidine Bromide [I-26]	–	793 ± 69.7	–
